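Tested at 5 concentrations; 48 h exposure; 96-well plates; endpoints linearly interpolated, else capped at highest concentration. The concentration for 50% growth inhibition is given as GI50.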 Activity calls are given as the source filed them. Cut-off read from the data, not from the text of the source: active = GI50 up to about 1.1 µM and inactive = higher.
Legend:
Experiment in all cases: inhibition of tumour cell growth, NCI panel, 48 h
[1] = test system: ACHN
[2] = test system: HT-29
[3] = test system: NCI/ADR-RES
[4] = test system: T47D
[5] = test system: SK-MEL-5
[6] = test system: TK-10
[7] = test system: HCT-116
[8] = test system: NCI-H460
[9] = test system: SF-539
[10] = test system: UACC-62
[11] = test system: KM12
[12] = test system: SW-620
[13] = test system: SF-295
[14] = test system: SK-OV-3
[15] = test system: A549
[16] = test system: RXF 393
[17] = test system: IGROV-1
[18] = test system: Malme-3M
[19] = test system: SK-MEL-2
[20] = test system: HCC 2998
[21] = test system: RPMI-8226
[22] = test system: MDA-MB-231
[23] = test system: NCI-H226
[24] = test system: SR
[25] = test system: U-251
[26] = test system: HCT-15
[27] = test system: OVCAR-3
[28] = test system: MOLT-4
[29] = test system: Hs-578T
[30] = test system: MDA-N
[31] = test system: SN12C
[32] = test system: OVCAR-5
[33] = test system: NCI-H23
[34] = test system: UACC-257
[35] = test system: SF-268
[36] = test system: UO-31
[37] = test system: K562
[38] = test system: HL-60
[39] = test system: DU-145
[40] = test system: BT-549
[41] = test system: CCRF-CEM
[42] = test system: LOX IMVI
[43] = test system: SK-MEL-28
[44] = test system: A498
[45] = test system: MCF7
[46] = test system: 786-0
[47] = test system: SNB-19
[48] = test system: PC-3
[49] = test system: EKVX
[50] = test system: HOP-62
[51] = test system: OVCAR-4
[52] = test system: NCI-H522
[53] = test system: HOP-92
[54] = test system: M14
[55] = test system: MDA-MB-435
[56] = test system: COLO 205
[57] = test system: OVCAR-8
[58] = test system: SNB-75
[59] = test system: CAKI-1

Q: Which GI50 [1] does the source give for COC(=O)C1C(O)C(C)C(O)C(C)(O)C=C(C)C2=C3C(=C(C)C(=O)c4c(O)c(c(C)c(OC(C)=O)c43)NC(=O)C(C)=C/C=C\C(C)(O)C(O)C(C)C1O)OCO2 (stereo unspecified) here?
A: > 100 µM (inactive)

Q: And the GI50 [2]?
A: 62.2 µM (inactive)

Q: What about the GI50 [3] of the same compound?
A: > 100 µM (inactive)

Q: And the GI50 [4]?
A: 67.9 µM (inactive)

Q: And the GI50 [5]?
A: 18.3 µM (inactive)

Q: What about the GI50 [6] of the same compound?
A: > 100 µM (inactive)

Q: What about the GI50 [7] of the same compound?
A: 35.5 µM (inactive)

Q: What about the GI50 [8] of the same compound?
A: > 100 µM (inactive)

Q: And the GI50 [9]?
A: > 100 µM (inactive)

Q: What about the GI50 [10] of the same compound?
A: 53.8 µM (inactive)

Q: What about the GI50 [11] of the same compound?
A: 80.2 µM (inactive)

Q: And the GI50 [12]?
A: 40.8 µM (inactive)

Q: And the GI50 [13]?
A: > 100 µM (inactive)

Q: And the GI50 [14]?
A: > 100 µM (inactive)

Q: And the GI50 [15]?
A: 88.9 µM (inactive)

Q: And the GI50 [16]?
A: > 100 µM (inactive)

Q: What about the GI50 [17] of the same compound?
A: 55.6 µM (inactive)

Q: And the GI50 [18]?
A: 33.7 µM (inactive)

Q: What about the GI50 [19] of the same compound?
A: 22.9 µM (inactive)

Q: What about the GI50 [20] of the same compound?
A: 57.4 µM (inactive)

Q: What about the GI50 [21] of the same compound?
A: 45.4 µM (inactive)

Q: And the GI50 [22]?
A: 32.5 µM (inactive)

Q: And the GI50 [23]?
A: > 100 µM (inactive)

Q: What about the GI50 [24] of the same compound?
A: 49.4 µM (inactive)

Q: What about the GI50 [25] of the same compound?
A: > 100 µM (inactive)

Q: And the GI50 [26]?
A: > 100 µM

Q: What about the GI50 [27] of the same compound?
A: 25.7 µM (inactive)

Q: And the GI50 [28]?
A: 67.6 µM (inactive)

Q: What about the GI50 [29] of the same compound?
A: > 100 µM (inactive)

Q: What about the GI50 [30] of the same compound?
A: 40.3 µM (inactive)

Q: And the GI50 [31]?
A: 94 µM (inactive)

Q: What about the GI50 [32] of the same compound?
A: > 100 µM (inactive)

Q: What about the GI50 [33] of the same compound?
A: > 100 µM (inactive)

Q: What about the GI50 [34] of the same compound?
A: 28.9 µM (inactive)

Q: What about the GI50 [35] of the same compound?
A: 75.2 µM (inactive)

Q: What about the GI50 [36] of the same compound?
A: 91.6 µM (inactive)

Q: What about the GI50 [37] of the same compound?
A: 81.1 µM (inactive)

Q: And the GI50 [38]?
A: 25.2 µM (inactive)

Q: And the GI50 [39]?
A: > 100 µM (inactive)

Q: And the GI50 [40]?
A: > 100 µM (inactive)

Q: And the GI50 [41]?
A: 49.8 µM (inactive)

Q: What about the GI50 [42] of the same compound?
A: 35.3 µM (inactive)

Q: And the GI50 [43]?
A: > 100 µM (inactive)

Q: What about the GI50 [44] of the same compound?
A: > 100 µM (inactive)

Q: And the GI50 [45]?
A: 41.3 µM (inactive)

Q: What about the GI50 [46] of the same compound?
A: > 100 µM (inactive)

Q: And the GI50 [47]?
A: > 100 µM (inactive)

Q: And the GI50 [48]?
A: 32.5 µM (inactive)

Q: What about the GI50 [49] of the same compound?
A: > 100 µM (inactive)

Q: And the GI50 [50]?
A: > 100 µM (inactive)

Q: What about the GI50 [51] of the same compound?
A: 56.4 µM (inactive)

Q: And the GI50 [52]?
A: 88.3 µM (inactive)

Q: What about the GI50 [53] of the same compound?
A: 24.7 µM (inactive)

Q: What about the GI50 [54] of the same compound?
A: 43.6 µM (inactive)

Q: And the GI50 [55]?
A: 33.9 µM (inactive)

Q: What about the GI50 [56] of the same compound?
A: 24.4 µM (inactive)

Q: What about the GI50 [57] of the same compound?
A: > 100 µM (inactive)

Q: And the GI50 [58]?
A: > 100 µM (inactive)

Q: For CCOc1cc(NC(C)=O)ccc1C(=O)NN1C(=O)CSC1c1ccc(O)c(OC)c1 (stereo unspecified), which GI50 [1] is on record?
A: 51.4 µM (inactive)

Q: What about the GI50 [2] of the same compound?
A: 73.6 µM (inactive)

Q: And the GI50 [3]?
A: 30.8 µM (inactive)

Q: And the GI50 [4]?
A: 32.4 µM (inactive)

Q: And the GI50 [5]?
A: 52.1 µM (inactive)

Q: And the GI50 [6]?
A: 6.67 µM (inactive)

Q: And the GI50 [7]?
A: 60.1 µM (inactive)

Q: And the GI50 [8]?
A: 43.5 µM (inactive)

Q: And the GI50 [9]?
A: > 100 µM (inactive)

Q: And the GI50 [10]?
A: 50.4 µM (inactive)

Q: And the GI50 [11]?
A: 42.9 µM (inactive)

Q: And the GI50 [12]?
A: 87.7 µM (inactive)

Q: And the GI50 [59]?
A: 44.4 µM (inactive)

Q: What about the GI50 [13] of the same compound?
A: 50.8 µM (inactive)

Q: What about the GI50 [14] of the same compound?
A: 93.5 µM (inactive)

Q: What about the GI50 [15] of the same compound?
A: 38.9 µM (inactive)

Q: What about the GI50 [16] of the same compound?
A: 34.7 µM (inactive)

Q: And the GI50 [17]?
A: 60.4 µM (inactive)

Q: What about the GI50 [18] of the same compound?
A: 46.8 µM (inactive)

Q: And the GI50 [19]?
A: 49 µM (inactive)

Q: What about the GI50 [20] of the same compound?
A: 32.1 µM (inactive)

Q: What about the GI50 [21] of the same compound?
A: 40.4 µM (inactive)

Q: And the GI50 [22]?
A: 53.8 µM (inactive)

Q: What about the GI50 [23] of the same compound?
A: 69.5 µM (inactive)

Q: And the GI50 [24]?
A: 50.9 µM (inactive)

Q: What about the GI50 [26] of the same compound?
A: 40.8 µM

Q: And the GI50 [27]?
A: 58.7 µM (inactive)

Q: What about the GI50 [28] of the same compound?
A: 23.8 µM (inactive)

Q: What about the GI50 [29] of the same compound?
A: 82.4 µM (inactive)

Q: And the GI50 [30]?
A: 54.7 µM (inactive)

Q: What about the GI50 [31] of the same compound?
A: > 100 µM (inactive)

Q: And the GI50 [32]?
A: > 100 µM (inactive)

Q: What about the GI50 [33] of the same compound?
A: 61.7 µM (inactive)

Q: What about the GI50 [34] of the same compound?
A: 48.4 µM (inactive)

Q: What about the GI50 [35] of the same compound?
A: 71.4 µM (inactive)

Q: And the GI50 [36]?
A: 10.8 µM (inactive)

Q: And the GI50 [37]?
A: 40.7 µM (inactive)

Q: What about the GI50 [38] of the same compound?
A: 41.5 µM (inactive)

Q: And the GI50 [39]?
A: > 100 µM (inactive)

Q: What about the GI50 [40] of the same compound?
A: 28 µM (inactive)

Q: What about the GI50 [41] of the same compound?
A: 40.8 µM (inactive)

Q: And the GI50 [42]?
A: 87.3 µM (inactive)

Q: And the GI50 [43]?
A: 84.5 µM (inactive)

Q: What about the GI50 [44] of the same compound?
A: > 100 µM (inactive)

Q: What about the GI50 [45] of the same compound?
A: 44.7 µM (inactive)

Q: What about the GI50 [46] of the same compound?
A: > 100 µM (inactive)

Q: And the GI50 [47]?
A: 89.1 µM (inactive)

Q: What about the GI50 [48] of the same compound?
A: 44 µM (inactive)

Q: And the GI50 [49]?
A: 42.7 µM (inactive)

Q: What about the GI50 [50] of the same compound?
A: > 100 µM (inactive)

Q: And the GI50 [51]?
A: 39.9 µM (inactive)

Q: And the GI50 [52]?
A: 37.8 µM (inactive)

Q: What about the GI50 [53] of the same compound?
A: 59.7 µM (inactive)

Q: And the GI50 [54]?
A: 50.4 µM (inactive)

Q: And the GI50 [55]?
A: 46.2 µM (inactive)

Q: And the GI50 [56]?
A: 33.1 µM (inactive)

Q: And the GI50 [57]?
A: 23.9 µM (inactive)

Q: And the GI50 [58]?
A: 85.3 µM (inactive)
